Consider 2 compounds from patent US12077503B2, “Substituted cyclic amides and their use as herbicides” (FMC CORPORATION, priority 2015, dated 2024).

What all share (type): in vivo
For experiment [1], the system named is barnyardgrass (Echinochloa crus-galli). Kind of experiment: Test A postemergence. The note with it: Echinochloa crus-galli, post-emergence, 240 h, 125 g ai/ha, Postemergence; visual injury after approximately 10 d; 0 to 100 scale where 0 is no effect and 100 is complete control; read-out: Plant response rating, Barnyardgrass. An outline of the steps:
(§1)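 Preemergence soil spray on seeded pots or post-emergence spray on 1–2 leaf plants, in loam–sand blend. Greenhouse ~10 d. Visual rating 0–100 against untreated plants.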

Experiment [2] concerns ryegrass, Italian (Italian ryegrass, Lolium multiflorum). Kind of experiment: Test A postemergence. The note with it: Lolium multiflorum, post-emergence, 240 h, 125 g ai/ha, Postemergence; visual injury after approximately 10 d; 0 to 100 scale where 0 is no effect and 100 is complete control; read-out: Plant response rating, Ryegrass, Italian. An outline of the steps: as §1

The test system of experiment [3] is Galium (catchweed bedstraw, Galium aparine). The experiment is described as follows: Test A postemergence. The note with it: Galium, post-emergence, 240 h, 125 g ai/ha, Postemergence; visual injury after approximately 10 d; 0 to 100 scale where 0 is no effect and 100 is complete control; read-out: Plant response rating, Galium. An outline of the steps: as §1
For experiment [4], the system named is pigweed (Amaranthus retroflexus). The experiment is described as follows: Test A postemergence. The note with it: Amaranthus retroflexus, post-emergence, 240 h, 125 g ai/ha, Postemergence; visual injury after approximately 10 d; 0 to 100 scale where 0 is no effect and 100 is complete control; read-out: Plant response rating, Pigweed. The essentials: as §1
Experiment [5] has as its system ragweed (common ragweed, Ambrosia elatior). Kind of experiment: Test A postemergence. Particulars: Ambrosia artemisiifolia, post-emergence, 240 h, 125 g ai/ha, Postemergence; visual injury after approximately 10 d; 0 to 100 scale where 0 is no effect and 100 is complete control; read-out: Plant response rating, Ragweed. The essentials: as §1
For experiment [6], the system named is blackgrass (Alopecurus myosuroides). Kind of experiment: Test A postemergence. Particulars: Alopecurus myosuroides, post-emergence, 240 h, 125 g ai/ha, Postemergence; visual injury after approximately 10 d; 0 to 100 scale where 0 is no effect and 100 is complete control; read-out: Plant response rating, Blackgrass. An outline of the steps:
as §1

Another experiment concerns corn (Zea mays). The experiment is described as follows: Test A postemergence. The note with it: Zea mays, post-emergence, 240 h, 125 g ai/ha, Postemergence; visual injury after approximately 10 d; 0 to 100 scale where 0 is no effect and 100 is complete control. An outline of the steps:
as §1

Experiment [7] relates to wheat (Triticum aestivum). Kind of experiment: Test A postemergence. Particulars: Triticum aestivum, post-emergence, 240 h, 125 g ai/ha, Postemergence; visual injury after approximately 10 d; 0 to 100 scale where 0 is no effect and 100 is complete control; read-out: Plant response rating, Wheat. An outline of the steps:
as §1

For another experiment, the system named is Kochia (Kochia scoparia). The experiment is described as follows: Test A postemergence. The note with it: Bassia scoparia, post-emergence, 240 h, 125 g ai/ha, Postemergence; visual injury after approximately 10 d; 0 to 100 scale where 0 is no effect and 100 is complete control; read-out: Plant response rating, Kochia. An outline of the steps:
as §1

In experiment [8] the test system is giant foxtail (Setaria faberii). The experiment is described as follows: Test A postemergence. The note with it: Setaria faberi, post-emergence, 240 h, 125 g ai/ha, Postemergence; visual injury after approximately 10 d; 0 to 100 scale where 0 is no effect and 100 is complete control; read-out: Plant response rating, Foxtail, Giant. An outline of the steps: as §1

Experiment [9] has as its system barnyardgrass (Echinochloa crus-galli). Kind of experiment: Test B flooded paddy test. Particulars: Echinochloa crus-galli, Flood, 250 g ai/ha; scale of 0 to 100 where 0 is no effect and 100 is complete control; read-out: Barnyardgrass plant response rating. An outline of the steps:
(§2)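 Response scored visually against untreated controls, 0 = no effect and 100 = complete control, 13–15 d after treatment in the greenhouse. Compounds added to paddy water held 3 cm above soil surface. Treatment given at 2-leaf stage.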

The subject of experiment [10] is ducksalad (Heteranthera limosa). The experiment is described as follows: Test B flooded paddy test. Particulars: Heteranthera limosa, Flood, 250 g ai/ha; scale of 0 to 100 where 0 is no effect and 100 is complete control; read-out: Ducksalad plant response rating. The essentials:
as §2

For a further experiment, the system named is rice (Oryra sativa). The experiment is described as follows: Test B flooded paddy test. The note with it: Oryza sativa, Flood, 250 g ai/ha; scale of 0 to 100 where 0 is no effect and 100 is complete control; read-out: Rice plant response rating. The essentials:
as §2

The test system of experiment [11] is sedge, umbrella (small-flower umbrella sedge, Cyperus difformis). The experiment is described as follows: Test B flooded paddy test. Particulars: Cyperus difformis, Flood, 250 g ai/ha, read-out: Sedge, Umbrella plant response rating. An outline of the steps:
as §2

Experiment [12] concerns ryegrass, Italian (Italian ryegrass, Lolium multiflorum). Kind of experiment: Test A preemergence. The note with it: Lolium multiflorum, pre-emergence, 240 h; for pest or weed control at 500 g/ha: 500 g ai/ha, preemergence, visual injury rating about 10 d after treatment, 0 to 100 scale (0 no effect, 100 complete control), read-out: Ryegrass, Italian plant response rating. The essentials: as §1

Where two headings read alike, the source gives them in different places.

With `O=C1NC[C@H](c2cccc(C(F)(F)F)n2)[C@H]1C(=O)Nc1ccccc1F` [Compound 940], the pest or weed control at 125 g/ha in experiment [1] is 10%; in [2], 0%; in [3], 0%; in [4], 0%; in experiment [5] it was 0%; in experiment [6] it was 0%. Besides, the pest or weed control at 125 g/ha (with Kochia (Kochia scoparia); in [8]) was 0% in each case. Also, in the experiment with corn (Zea mays), the Corn plant response rating (crop injury, 0 = no effect, 100 = complete kill) at 125 g/ha turned out to be 0%. Further, the plant injury at 125 g/ha in experiment [7] was 0%. The pest or weed control at 250 g/ha in [9] came out at 0%; in experiment [10], 0%; with rice (Oryra sativa), 0%; in experiment [11] (scale of 0 to 100 where 0 is no effect and 100 is complete control) it was 0%. In experiment [12], the pest or weed control at 500 g/ha was determined as 0%.

For the compound `CN1C[C@H](c2cc(F)cc(C(F)(F)F)c2)[C@@H](C(=O)Nc2cccc(Cl)c2F)C1=O` [Compound 995], the pest or weed control at 125 g/ha turned out to be 60% in experiment [1]; 30% in [2]; 40% in experiment [3]; 0% in experiment [4]; 0% in experiment [5]; 50% in experiment [6]. For the same compound, the pest or weed control at 125 g/ha in the experiment with Kochia (Kochia scoparia) worked out at 0%; in experiment [8], 80%; in [12] (125 g ai/ha, Preemergence, visual injury rating after approximately 10 d, read-out: Ryegrass, Italian plant response rating (0 to 100 scale, 0 is no effect, 100 is complete control)), 20%. Moreover, in the experiment on corn (Zea mays), the Corn plant response rating (crop injury, 0 = no effect, 100 = complete kill) at 125 g/ha stood at 30%. The plant injury at 125 g/ha in [7] worked out at 20%. Further, the pest or weed control at 250 g/ha in [9] was determined as 25%; in experiment [10] it was 70%; with rice (Oryra sativa) it was 0%; in experiment [11] (0 to 100 scale where 0 is no effect and 100 is complete control), 30%. Besides, the pest or weed control at 500 g/ha in experiment [12] is 50%.
